# System: patients with migraine (4 to 14 migraine/probable migraine headache days)
# Experiment: Example 5: randomized double-blind placebo-controlled 12-week dose-regimen study (QD and BID), migraine/probable migraine (MPM) headache days efficacy
# Format: in vivo, human
# Settings: mITT population
# Method: In a multicenter, randomized, double-blind, placebo-controlled, parallel-group study designed to evaluate the efficacy, safety, and tolerability of multiple doses and doses regimens of atogepant for the prevention of migraine. The patients were randomized (2:1:2:1:2:1) to 1 of 6 treatment groups: placebo, atogepant 10 mg QD, atogepant 30 mg QD, atogepant 30 mg BID, atogepant 60 mg QD, and atogepant 60 mg BID.
# This study consisted of a 4-week screening and baseline period and a 12-week double-blind treatment period, which was followed by a 4-week safety follow-up period. Total study duration is 20-weeks.
# To be randomized, eligible patients had to be 18 to 75 years of age (inclusive), have a history of migraine with or without aura for at least 1 year consistent with a diagnosis according to the International Classification of Headache Disorders criteria, 3rd edition, beta version, have experienced 4 to 14 migraine/probable migraine headache days and <15 headache days in the 28-day baseline period. Patients who had clinically significant hematologic, endocrine, cardiovascular, cerebrovascular, pulmonary, renal, hepatic, gastrointestinal, or neurologic disease were excluded from the study.
# A total of 834 patients were randomized to double-blind treatment (ITT population), and 825 patients took at least 1 dose of double-blind IP (safety population). […] The primary efficacy variable was the change from baseline in mean monthly migraine/probable migraine headache days across the 12-week treatment period. The secondary efficacy variables were the change from baseline in mean monthly headache days across the 12-week treatment period, proportion of patients with at least a 50% reduction in mean monthly migraine/probable migraine headache days across the 12-week treatment period, and the change from baseline in mean monthly acute medication use days across the 12-week treatment period.
# [1] = Weeks 1-4, Atogepant 60 mg BID (N = 87)
# [2] = Weeks 1-4, Atogepant 60 mg QD (N = 177)
# [3] = Weeks 5-8, Atogepant 10 mg QD (N = 92)
# [4] = Weeks 5-8, Atogepant 30 mg BID (N = 79)
# [5] = Weeks 5-8, Atogepant 30 mg QD (N = 182)
# [6] = Weeks 5-8, Atogepant 60 mg BID (N = 87)
# [7] = Weeks 5-8, Atogepant 60 mg QD (N = 177)
# [8] = Weeks 9-12, Atogepant 10 mg QD (N = 92)
# [9] = Weeks 9-12, Atogepant 30 mg BID (N = 79)
# [10] = Weeks 9-12, Atogepant 30 mg QD (N = 182)
# [11] = Weeks 9-12, Atogepant 60 mg BID (N = 87)
# [12] = Weeks 9-12, Atogepant 60 mg QD (N = 177)
smiles,measurement,setting,value
C[C@@H]1[C@H](c2c(F)ccc(F)c2F)C[C@H](NC(=O)c2cnc3c(c2)C[C@@]2(C3)C(=O)Nc3ncccc32)C(=O)N1CC(F)(F)F [atogepant],"Responders (at least 100% reduction in mean monthly MPM headache days), n","Weeks 1-4, Atogepant 30 mg QD (N = 182)",36
same,"Non-responders (at least 100% reduction in mean monthly MPM headache days not met), (%)",[1],(79.3) %
same,"Non-responders (at least 100% reduction in mean monthly MPM headache days not met), n",[1],69
same,"Odds ratio vs. Placebo, at least 100% reduction in mean monthly MPM headache days",[1],7.43
same,"Responders (at least 100% reduction in mean monthly MPM headache days), (%)",[1],(20.7) %
same,"Responders (at least 100% reduction in mean monthly MPM headache days), n",[1],18
same,"Non-responders (at least 100% reduction in mean monthly MPM headache days not met), (%)",[2],(85.2) %
same,"Non-responders (at least 100% reduction in mean monthly MPM headache days not met), n",[2],150
same,"Odds ratio vs. Placebo, at least 100% reduction in mean monthly MPM headache days",[2],4.94
same,"Responders (at least 100% reduction in mean monthly MPM headache days), (%)",[2],(14.8) %
same,"Responders (at least 100% reduction in mean monthly MPM headache days), n",[2],26
same,"Non-responders (at least 100% reduction in mean monthly MPM headache days not met), (%)",[3],(79.1) %
same,"Non-responders (at least 100% reduction in mean monthly MPM headache days not met), n",[3],68
same,"Odds ratio vs. Placebo, at least 100% reduction in mean monthly MPM headache days",[3],2.34
same,"Responders (at least 100% reduction in mean monthly MPM headache days), (%)",[3],(20.9) %
same,"Responders (at least 100% reduction in mean monthly MPM headache days), n",[3],18
same,"Non-responders (at least 100% reduction in mean monthly MPM headache days not met), (%)",[4],(80.3) %
same,"Non-responders (at least 100% reduction in mean monthly MPM headache days not met), n",[4],57
same,"Odds ratio vs. Placebo, at least 100% reduction in mean monthly MPM headache days",[4],2.26
same,"Responders (at least 100% reduction in mean monthly MPM headache days), (%)",[4],(19.7) %
same,"Responders (at least 100% reduction in mean monthly MPM headache days), n",[4],14
same,"Non-responders (at least 100% reduction in mean monthly MPM headache days not met), (%)",[5],(73.3) %
same,"Non-responders (at least 100% reduction in mean monthly MPM headache days not met), n",[5],121
same,"Odds ratio vs. Placebo, at least 100% reduction in mean monthly MPM headache days",[5],3.26
same,"Responders (at least 100% reduction in mean monthly MPM headache days), (%)",[5],(26.7) %
same,"Responders (at least 100% reduction in mean monthly MPM headache days), n",[5],44
same,"Non-responders (at least 100% reduction in mean monthly MPM headache days not met), (%)",[6],(73.8) %
same,"Non-responders (at least 100% reduction in mean monthly MPM headache days not met), n",[6],59
same,"Odds ratio vs. Placebo, at least 100% reduction in mean monthly MPM headache days",[6],3.25
same,"Responders (at least 100% reduction in mean monthly MPM headache days), (%)",[6],(26.3) %
same,"Responders (at least 100% reduction in mean monthly MPM headache days), n",[6],21
same,"Non-responders (at least 100% reduction in mean monthly MPM headache days not met), (%)",[7],(79.9) %
same,"Non-responders (at least 100% reduction in mean monthly MPM headache days not met), n",[7],135
same,"Odds ratio vs. Placebo, at least 100% reduction in mean monthly MPM headache days",[7],2.31
same,"Responders (at least 100% reduction in mean monthly MPM headache days), (%)",[7],(20.1) %
same,"Responders (at least 100% reduction in mean monthly MPM headache days), n",[7],34
same,"Non-responders (at least 100% reduction in mean monthly MPM headache days not met), (%)",[8],(79.8) %
same,"Non-responders (at least 100% reduction in mean monthly MPM headache days not met), n",[8],67
same,"Odds ratio vs. Placebo, at least 100% reduction in mean monthly MPM headache days",[8],1.43
same,"Responders (at least 100% reduction in mean monthly MPM headache days), (%)",[8],(20.02) %
same,"Responders (at least 100% reduction in mean monthly MPM headache days), n",[8],17
same,"Non-responders (at least 100% reduction in mean monthly MPM headache days not met), (%)",[9],(71.0) %
same,"Non-responders (at least 100% reduction in mean monthly MPM headache days not met), n",[9],49
same,"Odds ratio vs. Placebo, at least 100% reduction in mean monthly MPM headache days",[9],2.42
same,"Responders (at least 100% reduction in mean monthly MPM headache days), (%)",[9],(29.0) %
same,"Responders (at least 100% reduction in mean monthly MPM headache days), n",[9],20
same,"Non-responders (at least 100% reduction in mean monthly MPM headache days not met), (%)",[10],(77.0) %
same,"Non-responders (at least 100% reduction in mean monthly MPM headache days not met), n",[10],117
same,"Odds ratio vs. Placebo, at least 100% reduction in mean monthly MPM headache days",[10],1.72
same,"Responders (at least 100% reduction in mean monthly MPM headache days), (%)",[10],(23.0) %
same,"Responders (at least 100% reduction in mean monthly MPM headache days), n",[10],35
same,"Non-responders (at least 100% reduction in mean monthly MPM headache days not met), (%)",[11],(67.6) %
same,"Non-responders (at least 100% reduction in mean monthly MPM headache days not met), n",[11],48
same,"Odds ratio vs. Placebo, at least 100% reduction in mean monthly MPM headache days",[11],2.59
same,"Responders (at least 100% reduction in mean monthly MPM headache days), (%)",[11],(32.4) %
same,"Responders (at least 100% reduction in mean monthly MPM headache days), n",[11],23
same,"Non-responders (at least 100% reduction in mean monthly MPM headache days not met), (%)",[12],(73.2) %
same,"Non-responders (at least 100% reduction in mean monthly MPM headache days not met), n",[12],120
same,"Odds ratio vs. Placebo, at least 100% reduction in mean monthly MPM headache days",[12],2.07
same,"Responders (at least 100% reduction in mean monthly MPM headache days), (%)",[12],(26.8) %
same,"Responders (at least 100% reduction in mean monthly MPM headache days), n",[12],44
